From patent US12728111B2, “Electrophilic compounds and electrophilic prodrugs for treating aneurysm” (University of Pittsburgh—Of the Commonwealth System of …, priority 2020, dated 2026)

Legend:
[1] = tested on: circulating MCP1 and IL6; assay: Circulating cytokine ELISA in AAA model mice; assay type: in vivo, mouse
Source text: FIG. 2. […] (A) Quantification of gene expression levels in the mice suprarenal aorta region by real-time PCR (n=3 to 4). (B, C) Serum cytokines levels measured by ELISA (n=8 to 11). (D) FACS of single cells isolated from the mice suprarenal aorta region. Each sample is the pool of cells from three mice (n=3). (E, F) Quantification of the percentage of CD45+ leukocytes and CD64+, CD11c+M1-like macrophages in total cells from the FACS analysis. Ordinary one-way ANOVA followed by Tukey's test was performed for (A), (E) and (F). For ELISA in (B) and (C), to avoid the effect of the non-detected data point, a non-parametric Kruskal-Wallis test followed by Dunn's multiple comparisons was performed by adding zero to the missing data point. Data presented as mean±SEM. A p<0.05 for both the main test and post hoc test was considered statistically significant.
MCP1, TNFα and IL6 levels in mouse plasma were measured by ELISA performed by the Cancer Center Immunology Core at the University of Michigan.

[2] = tested on: LPS-induced macrophage activation; assay: PGE2-mediated protection against LPS-induced macrophage activation; assay type: cell-based
[3] = molecular target: T1, EPRAP/p105 interaction (Homo sapiens, UniProt P19838+Q9BSK4); assay: Co-IP of HA-tagged EPRAP (FEM1A) and p105; assay type: cell-based; conditions: up to 5 μM; cells overexpressing HA-tagged EPRAP (FEM1A) and p105
T1 construct: Addgene (p105 plasmid) #HG21487-NY; plasmid #23288
T1 sequence (Q9BSK4 1-669): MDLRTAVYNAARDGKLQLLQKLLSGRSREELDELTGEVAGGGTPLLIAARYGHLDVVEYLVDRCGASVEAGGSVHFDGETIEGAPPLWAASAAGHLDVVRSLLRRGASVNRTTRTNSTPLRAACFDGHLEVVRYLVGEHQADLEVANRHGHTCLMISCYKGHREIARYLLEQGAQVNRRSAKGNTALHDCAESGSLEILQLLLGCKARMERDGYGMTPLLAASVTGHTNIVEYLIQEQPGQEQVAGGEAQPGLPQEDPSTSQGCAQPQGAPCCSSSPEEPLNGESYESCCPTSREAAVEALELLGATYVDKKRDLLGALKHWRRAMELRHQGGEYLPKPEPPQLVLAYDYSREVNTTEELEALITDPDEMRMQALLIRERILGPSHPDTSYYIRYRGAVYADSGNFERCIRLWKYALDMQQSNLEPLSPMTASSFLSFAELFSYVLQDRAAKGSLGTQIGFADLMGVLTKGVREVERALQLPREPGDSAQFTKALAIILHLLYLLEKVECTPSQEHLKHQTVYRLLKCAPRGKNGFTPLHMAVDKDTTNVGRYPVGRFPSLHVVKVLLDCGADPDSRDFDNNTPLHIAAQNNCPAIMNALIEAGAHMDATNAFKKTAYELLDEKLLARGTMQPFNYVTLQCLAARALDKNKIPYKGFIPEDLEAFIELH
T1 sequence (P19838 1-968): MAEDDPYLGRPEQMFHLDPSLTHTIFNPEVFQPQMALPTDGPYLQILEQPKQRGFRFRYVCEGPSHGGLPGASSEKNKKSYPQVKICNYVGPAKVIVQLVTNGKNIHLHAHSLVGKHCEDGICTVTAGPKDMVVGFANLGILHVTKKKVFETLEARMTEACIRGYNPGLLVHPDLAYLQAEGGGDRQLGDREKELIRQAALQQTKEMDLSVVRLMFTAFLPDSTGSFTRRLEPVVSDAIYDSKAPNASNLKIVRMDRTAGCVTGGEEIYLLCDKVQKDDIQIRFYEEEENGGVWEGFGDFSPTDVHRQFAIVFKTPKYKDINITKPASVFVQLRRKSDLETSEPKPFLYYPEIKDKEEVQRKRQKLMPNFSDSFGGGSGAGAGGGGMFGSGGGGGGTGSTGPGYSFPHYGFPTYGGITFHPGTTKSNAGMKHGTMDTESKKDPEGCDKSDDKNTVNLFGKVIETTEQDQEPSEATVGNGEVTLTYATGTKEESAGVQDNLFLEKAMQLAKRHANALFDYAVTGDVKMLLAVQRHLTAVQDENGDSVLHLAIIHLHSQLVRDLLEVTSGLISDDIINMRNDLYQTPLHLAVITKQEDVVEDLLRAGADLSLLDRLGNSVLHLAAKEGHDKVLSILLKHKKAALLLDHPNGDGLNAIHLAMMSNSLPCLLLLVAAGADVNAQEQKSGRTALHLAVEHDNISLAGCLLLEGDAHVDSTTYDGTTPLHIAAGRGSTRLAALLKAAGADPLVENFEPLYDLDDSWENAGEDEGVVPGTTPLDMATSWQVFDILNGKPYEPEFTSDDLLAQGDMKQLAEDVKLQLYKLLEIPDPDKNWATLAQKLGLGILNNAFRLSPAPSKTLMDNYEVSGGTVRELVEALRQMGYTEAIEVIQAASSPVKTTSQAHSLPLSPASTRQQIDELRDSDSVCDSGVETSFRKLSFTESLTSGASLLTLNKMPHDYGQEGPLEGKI
Source text: Nuclear/cytoplasm protein extraction, co-Immunoprecipitation and immunoblotting NE-PER™ Nuclear and Cytoplasmic Extraction Reagents (#78835, ThermoFisher) were used for nuclear and cytoplasmic protein extraction. For Co-IP, cells were lysed using Cell Lysis Buffer (#9803, CST) supplemented with PMSF (#8553, CST), immunoprecipitated using Protein G Magnetic Beads (#7024, CST) and antibodies against HA (#AE008, ABclonal) or p50/p105(#13586, CST) following the manufacture's protocol. For immunoblot, protein extracts were resolved in SDS-PAGE gels and transferred to nitrocellulose membranes. Membranes were blocked by 5% BSA and incubated with the primary antibody at 4° C. overnight followed by incubation with fluorescence conjugated secondary antibody for 1 h at room temperature. Band intensity was collected with the Odyssey® CLx Imaging System and quantified using Image Studio™ Lite.

SMILES: CCCCCCCCC(=CCCCCCCCC(=O)O)[N+](=O)[O-] [NO2—OA, 10-nitro-octadec-9-enoic acid]
- protein level of circulating IL6 [1]: significantly decreased
- protein level of circulating MCP1 [1]: significantly decreased
- PGE2-mediated protective effect against LPS-induced macrophage activation (expression of Tnf, Il6, Ccl4) [2]: does not suppress
- effect on the EPRAP/p105 interaction [3]: no significant effect
